Reference: ChEMBL document CHEMBL2390817, “Structure-activity relationship of human glutaminyl cyclase inhibitors having an N-(5-methyl-1H-imidazol-1-yl)propyl thiourea template” (Bioorg Med Chem, 2013)

Molecular target: Glutaminyl-peptide cyclotransferase (Homo sapiens, UniProt Q16769)
Test: Inhibition of human glutaminyl cyclase expressed in HEK293 cells using L-glutaminyl-beta-naphthylamine as substrate after 1 hr by fluorometric analysis; call rule not given here

Glutaminyl-peptide cyclotransferase, sequence (Q16769 whole entry): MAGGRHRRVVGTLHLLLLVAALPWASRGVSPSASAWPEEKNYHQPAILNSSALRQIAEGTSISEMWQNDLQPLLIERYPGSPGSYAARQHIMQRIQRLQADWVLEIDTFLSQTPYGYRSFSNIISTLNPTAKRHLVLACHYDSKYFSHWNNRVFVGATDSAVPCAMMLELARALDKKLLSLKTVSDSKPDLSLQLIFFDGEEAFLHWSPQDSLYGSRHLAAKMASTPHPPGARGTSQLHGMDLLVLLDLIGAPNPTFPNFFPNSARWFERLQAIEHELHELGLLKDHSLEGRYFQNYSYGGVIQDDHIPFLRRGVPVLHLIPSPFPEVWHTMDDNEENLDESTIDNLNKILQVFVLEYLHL

SMILES | IC50
Cc1cncn1CCCNC(=S)Nc1ccc2cnccc2c1 | Active
Cc1cncn1CCCNC(=S)Nc1cccc2cccnc12 | Active
Cc1cncn1CCCNC(=S)Nc1cccnc1 | Active
Cc1cncn1CCCNC(=S)Nc1cnc2ccccc2c1 | Active
Cc1cncn1CCCNC(=S)Nc1cccc2c1OCCO2 | Not Active
Cc1cncn1CCCNC(=S)Nc1ccc2cc[nH]c2c1 | Active
Cc1cncn1CCCNC(=S)Nc1ccc2c(c1)CCC2 | Active
